Data from the kinase profiling compilation of Christmann-Franck et al. (2016).
Blank lines part the entries; values can stand above or below the compound they belong to.

Legend:
Assay in all cases: Caliper, Mobility shift assay off-chip
CLK2 (human) = CLK2 (human) (UniProt P49760)
[1] = system: FGFR3 (human), P22607 [K650E]
PRKCI (human) = PRKCI (human) (UniProt P41743)
TXK (human) = TXK (human) (UniProt P42681)
CSNK1G2 (human) = CSNK1G2 (human) (UniProt P78368)
ALK (human) = ALK (human) (UniProt Q9UM73)
DAPK3 (human) = DAPK3 (human) (UniProt O43293)
PASK (human) = PASK (human) (UniProt Q96RG2)
CSNK1G3 (human) = CSNK1G3 (human) (UniProt Q9Y6M4)
Sequence of CSNK1G3 (human) (Q9Y6M4 whole entry, looked up): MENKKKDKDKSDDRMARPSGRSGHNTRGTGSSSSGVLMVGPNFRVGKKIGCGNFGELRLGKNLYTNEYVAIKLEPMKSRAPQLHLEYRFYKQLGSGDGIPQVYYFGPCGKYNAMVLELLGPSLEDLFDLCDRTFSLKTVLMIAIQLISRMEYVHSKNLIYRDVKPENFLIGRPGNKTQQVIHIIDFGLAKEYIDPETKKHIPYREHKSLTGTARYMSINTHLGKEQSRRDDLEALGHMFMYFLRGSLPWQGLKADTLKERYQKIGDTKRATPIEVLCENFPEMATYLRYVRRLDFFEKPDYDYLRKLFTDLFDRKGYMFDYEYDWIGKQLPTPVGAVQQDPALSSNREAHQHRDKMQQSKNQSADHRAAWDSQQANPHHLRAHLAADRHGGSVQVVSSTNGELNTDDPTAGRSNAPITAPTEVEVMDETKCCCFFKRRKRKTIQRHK

HIPK2 (human) = HIPK2 (human) (UniProt Q9H2X6)
TYRO3 (human) = TYRO3 (human) (UniProt Q06418)
[2] = system: EGFR (human), P00533 [T790M/L858R]
Sequence of EGFR (human), P00533 [T790M/L858R] (P00533 whole entry T790M/L858R, looked up): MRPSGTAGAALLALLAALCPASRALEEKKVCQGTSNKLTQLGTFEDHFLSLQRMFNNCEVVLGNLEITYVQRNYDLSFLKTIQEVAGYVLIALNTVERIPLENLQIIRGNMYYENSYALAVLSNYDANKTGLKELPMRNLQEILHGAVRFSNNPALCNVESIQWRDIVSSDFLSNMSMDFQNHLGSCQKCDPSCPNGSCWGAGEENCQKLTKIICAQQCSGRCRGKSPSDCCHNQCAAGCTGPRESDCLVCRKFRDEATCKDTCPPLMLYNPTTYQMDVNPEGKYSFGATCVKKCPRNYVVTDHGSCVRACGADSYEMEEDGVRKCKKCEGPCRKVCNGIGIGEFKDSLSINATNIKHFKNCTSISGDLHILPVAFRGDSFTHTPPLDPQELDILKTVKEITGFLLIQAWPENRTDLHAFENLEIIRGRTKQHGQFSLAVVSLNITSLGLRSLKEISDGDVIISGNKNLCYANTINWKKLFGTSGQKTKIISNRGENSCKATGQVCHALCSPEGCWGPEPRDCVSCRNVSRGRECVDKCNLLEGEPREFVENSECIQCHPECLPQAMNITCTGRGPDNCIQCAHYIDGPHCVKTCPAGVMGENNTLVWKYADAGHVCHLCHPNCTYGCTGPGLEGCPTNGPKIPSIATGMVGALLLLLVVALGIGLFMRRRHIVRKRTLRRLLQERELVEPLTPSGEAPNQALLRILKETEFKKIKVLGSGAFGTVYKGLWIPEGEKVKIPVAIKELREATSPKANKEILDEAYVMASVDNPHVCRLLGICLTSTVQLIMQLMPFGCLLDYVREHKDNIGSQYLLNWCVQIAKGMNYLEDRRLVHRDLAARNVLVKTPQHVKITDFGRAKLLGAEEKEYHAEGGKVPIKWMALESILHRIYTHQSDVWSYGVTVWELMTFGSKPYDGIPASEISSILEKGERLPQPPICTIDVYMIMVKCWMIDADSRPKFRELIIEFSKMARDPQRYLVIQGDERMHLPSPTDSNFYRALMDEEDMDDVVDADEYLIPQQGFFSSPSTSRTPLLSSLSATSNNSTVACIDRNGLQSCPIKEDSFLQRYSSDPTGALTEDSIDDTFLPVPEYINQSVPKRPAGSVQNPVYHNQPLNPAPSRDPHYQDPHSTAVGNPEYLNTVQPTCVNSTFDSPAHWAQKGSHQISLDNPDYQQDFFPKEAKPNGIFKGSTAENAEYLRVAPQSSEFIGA

EPHA8 (human) = EPHA8 (human) (UniProt P29322)
FGFR1 (human) = FGFR1 (human) (UniProt P11362)
PHKG1 (human) = PHKG1 (human) (UniProt Q16816)
Sequence of PHKG1 (human) (Q16816 whole entry, looked up): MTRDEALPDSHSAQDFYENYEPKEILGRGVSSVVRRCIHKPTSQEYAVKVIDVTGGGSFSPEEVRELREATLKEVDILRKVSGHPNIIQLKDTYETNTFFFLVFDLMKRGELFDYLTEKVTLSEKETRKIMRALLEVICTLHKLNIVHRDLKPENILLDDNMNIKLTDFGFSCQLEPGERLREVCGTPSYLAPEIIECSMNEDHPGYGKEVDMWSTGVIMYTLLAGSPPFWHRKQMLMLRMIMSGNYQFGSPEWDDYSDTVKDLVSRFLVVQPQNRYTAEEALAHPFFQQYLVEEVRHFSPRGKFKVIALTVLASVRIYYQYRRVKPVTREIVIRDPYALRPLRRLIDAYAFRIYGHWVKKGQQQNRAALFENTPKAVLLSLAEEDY

MST1R (human) = MST1R (human) (UniProt Q04912)
YES1 (human) = YES1 (human) (UniProt P07947)
[3] = biological target: PRKAA2 PRKAB1 PRKAG1 (human) (UniProt Q9Y478+P54646+P54619)
ROCK1 (human) = ROCK1 (human) (UniProt Q13464)
[4] = system: PDGFRA (human), P16234 [V561D]
DAPK1 (human) = DAPK1 (human) (UniProt P53355)
[5] = system: RET (human), P07949 [Y791F]
PHKG2 (human) = PHKG2 (human) (UniProt P15735)
MARK4 (human) = MARK4 (human) (UniProt Q96L34)
RET (human) = RET (human) (UniProt P07949)
RPS6KA6 KD1 KD2 (human) = RPS6KA6 KD1 KD2 (human) (UniProt Q9UK32)
ROS1 (human) = ROS1 (human) (UniProt P08922)
MERTK (human) = MERTK (human) (UniProt Q12866)
[6] = system: EGFR (human), P00533 [T790M]
FRK (human) = FRK (human) (UniProt P42685)
Sequence of FRK (human) (P42685 whole entry, looked up): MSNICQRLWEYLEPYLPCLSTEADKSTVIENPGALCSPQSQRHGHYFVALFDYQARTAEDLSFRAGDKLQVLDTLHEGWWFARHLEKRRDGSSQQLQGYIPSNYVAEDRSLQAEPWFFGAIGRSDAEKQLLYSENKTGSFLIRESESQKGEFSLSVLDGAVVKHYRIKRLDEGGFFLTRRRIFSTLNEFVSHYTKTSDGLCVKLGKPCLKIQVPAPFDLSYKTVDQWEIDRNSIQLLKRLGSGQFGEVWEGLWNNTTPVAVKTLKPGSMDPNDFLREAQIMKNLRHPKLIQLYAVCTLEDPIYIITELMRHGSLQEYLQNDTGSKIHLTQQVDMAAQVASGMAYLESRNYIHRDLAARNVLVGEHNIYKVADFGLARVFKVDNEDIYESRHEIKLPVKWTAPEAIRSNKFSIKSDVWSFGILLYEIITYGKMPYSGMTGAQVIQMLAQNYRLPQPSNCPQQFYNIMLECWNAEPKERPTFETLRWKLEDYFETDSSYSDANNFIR

JAK2 JH1 JH2 (human) = JAK2 JH1 JH2 (human) (UniProt O60674)
AXL (human) = AXL (human) (UniProt P30530)
Sequence of AXL (human) (P30530 whole entry, looked up): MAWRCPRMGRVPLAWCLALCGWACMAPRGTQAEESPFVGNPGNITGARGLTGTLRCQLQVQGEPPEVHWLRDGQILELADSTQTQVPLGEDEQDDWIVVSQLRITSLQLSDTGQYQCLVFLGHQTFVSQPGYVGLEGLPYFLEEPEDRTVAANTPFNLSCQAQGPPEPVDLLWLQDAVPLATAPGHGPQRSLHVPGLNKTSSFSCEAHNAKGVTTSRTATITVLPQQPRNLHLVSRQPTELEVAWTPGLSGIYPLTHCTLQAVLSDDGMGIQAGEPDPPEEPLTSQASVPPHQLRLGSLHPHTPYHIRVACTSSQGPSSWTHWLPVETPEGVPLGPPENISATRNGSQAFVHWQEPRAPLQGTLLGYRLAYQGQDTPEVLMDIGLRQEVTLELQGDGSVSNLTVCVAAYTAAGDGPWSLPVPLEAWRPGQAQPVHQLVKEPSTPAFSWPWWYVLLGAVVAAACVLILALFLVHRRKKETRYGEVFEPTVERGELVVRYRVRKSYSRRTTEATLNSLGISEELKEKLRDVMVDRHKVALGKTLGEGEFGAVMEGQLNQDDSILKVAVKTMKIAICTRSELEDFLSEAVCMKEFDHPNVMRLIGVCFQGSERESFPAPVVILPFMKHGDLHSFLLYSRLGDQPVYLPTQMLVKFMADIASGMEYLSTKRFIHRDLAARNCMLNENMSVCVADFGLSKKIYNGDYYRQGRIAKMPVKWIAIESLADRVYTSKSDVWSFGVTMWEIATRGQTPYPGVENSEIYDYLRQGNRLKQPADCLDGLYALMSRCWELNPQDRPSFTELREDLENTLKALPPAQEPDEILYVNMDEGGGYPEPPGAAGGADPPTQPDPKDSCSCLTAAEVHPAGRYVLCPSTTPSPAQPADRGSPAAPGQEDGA

CDK5 CDK5R1 p25 (human) = CDK5 CDK5R1 p25 (human) (UniProt Q15078+Q00535)
Sequence of CDK5 CDK5R1 p25 (human) (Q00535 whole entry, looked up): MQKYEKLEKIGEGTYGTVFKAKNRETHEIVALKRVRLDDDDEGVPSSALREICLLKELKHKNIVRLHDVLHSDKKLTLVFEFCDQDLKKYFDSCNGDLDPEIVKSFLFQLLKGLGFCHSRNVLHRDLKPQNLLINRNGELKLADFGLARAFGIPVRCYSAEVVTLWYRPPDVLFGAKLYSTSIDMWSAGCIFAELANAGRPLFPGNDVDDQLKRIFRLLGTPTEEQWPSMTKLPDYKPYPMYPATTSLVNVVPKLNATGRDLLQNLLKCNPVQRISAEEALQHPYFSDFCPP
Sequence of CDK5 CDK5R1 p25 (human) (Q15078 whole entry, looked up): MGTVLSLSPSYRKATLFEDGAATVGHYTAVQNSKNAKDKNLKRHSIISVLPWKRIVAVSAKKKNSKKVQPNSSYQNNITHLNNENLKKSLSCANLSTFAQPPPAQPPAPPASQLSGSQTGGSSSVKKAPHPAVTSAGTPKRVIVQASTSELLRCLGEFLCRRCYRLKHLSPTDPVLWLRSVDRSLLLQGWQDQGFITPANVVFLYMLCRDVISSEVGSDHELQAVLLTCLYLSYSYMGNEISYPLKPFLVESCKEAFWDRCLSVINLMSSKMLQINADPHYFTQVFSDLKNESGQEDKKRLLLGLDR

Sequence of CSNK1G2 (human) (P78368 whole entry, looked up): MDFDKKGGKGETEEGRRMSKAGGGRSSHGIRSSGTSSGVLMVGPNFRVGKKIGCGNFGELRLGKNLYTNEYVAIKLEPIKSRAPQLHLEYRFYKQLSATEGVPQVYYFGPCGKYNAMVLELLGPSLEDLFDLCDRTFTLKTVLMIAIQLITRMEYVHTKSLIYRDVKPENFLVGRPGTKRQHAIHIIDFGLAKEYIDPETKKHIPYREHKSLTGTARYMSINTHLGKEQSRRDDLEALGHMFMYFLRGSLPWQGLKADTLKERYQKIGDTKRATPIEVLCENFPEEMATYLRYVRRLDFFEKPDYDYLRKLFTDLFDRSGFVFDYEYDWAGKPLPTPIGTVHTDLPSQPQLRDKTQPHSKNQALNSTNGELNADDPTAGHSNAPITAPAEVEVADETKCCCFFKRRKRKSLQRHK
Sequence of TXK (human) (P42681 whole entry, looked up): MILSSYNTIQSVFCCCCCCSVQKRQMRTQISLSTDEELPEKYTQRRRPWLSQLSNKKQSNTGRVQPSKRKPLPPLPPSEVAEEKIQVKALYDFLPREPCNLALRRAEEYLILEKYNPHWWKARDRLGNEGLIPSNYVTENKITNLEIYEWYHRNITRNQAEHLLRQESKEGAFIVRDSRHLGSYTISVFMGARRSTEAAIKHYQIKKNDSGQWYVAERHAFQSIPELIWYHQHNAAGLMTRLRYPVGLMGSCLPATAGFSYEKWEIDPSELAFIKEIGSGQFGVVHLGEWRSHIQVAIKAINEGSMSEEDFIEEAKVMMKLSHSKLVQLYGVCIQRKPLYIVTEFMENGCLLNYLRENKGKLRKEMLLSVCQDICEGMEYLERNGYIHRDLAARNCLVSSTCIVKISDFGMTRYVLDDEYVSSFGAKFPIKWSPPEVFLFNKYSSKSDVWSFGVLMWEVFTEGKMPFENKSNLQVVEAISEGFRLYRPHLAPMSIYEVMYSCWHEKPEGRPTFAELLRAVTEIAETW

- inhibition (CLK2 (human); compound 0.1 µM): 3.4%
- inhibition (CLK2 (human); compound 1.0 µM): 4.1%
- inhibition ([1]; compound 0.1 µM): -1.7%
- inhibition ([1]; compound 1.0 µM): 2.1%
- inhibition (PRKCI (human); compound 0.1 µM): -0.6%
- inhibition (PRKCI (human); compound 1.0 µM): 1.4%
- inhibition (TXK (human); compound 0.1 µM): -5.1%
- inhibition (TXK (human); compound 1.0 µM): -9.7%
- inhibition (CSNK1G2 (human); compound 0.1 µM): 2.7%
- inhibition (CSNK1G2 (human); compound 1.0 µM): 5.8%
- inhibition (ALK (human); compound 0.1 µM): 6.9%
- inhibition (ALK (human); compound 1.0 µM): -9.5%
- inhibition (DAPK3 (human); compound 0.1 µM): -1.7%
- inhibition (DAPK3 (human); compound 1.0 µM): -4.5%
- inhibition (PASK (human); compound 0.1 µM): 6.7%
- inhibition (PASK (human); compound 1.0 µM): 3.2%
- inhibition (CSNK1G3 (human); compound 0.1 µM): 0.3%
- inhibition (CSNK1G3 (human); compound 1.0 µM): 15.2%
- inhibition (HIPK2 (human); compound 0.1 µM): 3.6%
- inhibition (HIPK2 (human); compound 1.0 µM): 3.9%
- inhibition (TYRO3 (human); compound 0.1 µM): 4.1%
- inhibition (TYRO3 (human); compound 1.0 µM): 4.2%
- inhibition ([2]; compound 0.1 µM): -0.8%
- inhibition ([2]; compound 1.0 µM): -3.6%
- inhibition (EPHA8 (human); compound 0.1 µM): 9.4%
- inhibition (EPHA8 (human); compound 1.0 µM): 5.1%
- inhibition (FGFR1 (human); compound 0.1 µM): 1.5%
- inhibition (FGFR1 (human); compound 1.0 µM): -7.9%
- inhibition (PHKG1 (human); compound 0.1 µM): 7.9%
- inhibition (PHKG1 (human); compound 1.0 µM): 1.2%
- inhibition (MST1R (human); compound 0.1 µM): -3.6%
- inhibition (MST1R (human); compound 1.0 µM): 20.5%
- inhibition (YES1 (human); compound 0.1 µM): -0.7%
- inhibition (YES1 (human); compound 1.0 µM): -5.3%
- inhibition ([3]; compound 0.1 µM): 5.1%
- inhibition ([3]; compound 1.0 µM): -1.5%
- inhibition (ROCK1 (human); compound 0.1 µM): 4.2%
- inhibition (ROCK1 (human); compound 1.0 µM): 8.2%
- inhibition ([4]; compound 0.1 µM): -12.5%
- inhibition ([4]; compound 1.0 µM): 21.5%
- inhibition (DAPK1 (human); compound 0.1 µM): 2.4%
- inhibition (DAPK1 (human); compound 1.0 µM): 0.1%
- inhibition ([5]; compound 0.1 µM): 1.1%
- inhibition ([5]; compound 1.0 µM): 2.7%
- inhibition (PHKG2 (human); compound 0.1 µM): 1%
- inhibition (PHKG2 (human); compound 1.0 µM): -4.4%
- inhibition (MARK4 (human); compound 0.1 µM): 0%
- inhibition (MARK4 (human); compound 1.0 µM): -3.4%
- inhibition (RET (human); compound 0.1 µM): 1.9%
- inhibition (RET (human); compound 1.0 µM): 2.8%
- inhibition (RPS6KA6 KD1 KD2 (human); compound 0.1 µM): 5.9%
- inhibition (RPS6KA6 KD1 KD2 (human); compound 1.0 µM): -8.4%
- inhibition (ROS1 (human); compound 0.1 µM): 5.1%
- inhibition (ROS1 (human); compound 1.0 µM): -12.4%
- inhibition (MERTK (human); compound 0.1 µM): 2.5%
- inhibition (MERTK (human); compound 1.0 µM): 15.5%
- inhibition ([6]; compound 0.1 µM): 1.6%
- inhibition ([6]; compound 1.0 µM): -11.1%
- inhibition (FRK (human); compound 0.1 µM): 7.1%
- inhibition (FRK (human); compound 1.0 µM): 6.2%
- inhibition (JAK2 JH1 JH2 (human); compound 0.1 µM): -2.8%
- inhibition (JAK2 JH1 JH2 (human); compound 1.0 µM): 5.9%
- inhibition (AXL (human); compound 0.1 µM): 6.1%
- inhibition (AXL (human); compound 1.0 µM): 20.3%
- inhibition (CDK5 CDK5R1 p25 (human); compound 0.1 µM): 2.2%
- inhibition (CDK5 CDK5R1 p25 (human); compound 1.0 µM): 0.3%
Structure (SMILES): O=C(CCc1ccc2ccc3ncc(C4CCNCC4)cc3c(=O)c2c1)NCc1ccccn1

- inhibition (CLK2 (human); compound 0.01 µM): -6.3%
- inhibition (CLK2 (human); compound 0.1 µM): -5.2%
- inhibition ([1]; compound 0.01 µM): -2.1%
- inhibition ([1]; compound 0.1 µM): 5.1%
- inhibition (PRKCI (human); compound 0.01 µM): 0.9%
- inhibition (PRKCI (human); compound 0.1 µM): 1%
- inhibition (TXK (human); compound 0.01 µM): -5.5%
- inhibition (TXK (human); compound 0.1 µM): 4.8%
- inhibition (CSNK1G2 (human); compound 0.01 µM): 4.3%
- inhibition (CSNK1G2 (human); compound 0.1 µM): 1.3%
- inhibition (ALK (human); compound 0.01 µM): 17.8%
- inhibition (ALK (human); compound 0.1 µM): -2%
- inhibition (DAPK3 (human); compound 0.01 µM): -1.6%
- inhibition (DAPK3 (human); compound 0.1 µM): 0.3%
- inhibition (PASK (human); compound 0.01 µM): 1.5%
- inhibition (PASK (human); compound 0.1 µM): 18.4%
- inhibition (CSNK1G3 (human); compound 0.01 µM): 0.7%
- inhibition (CSNK1G3 (human); compound 0.1 µM): -0.7%
- inhibition (HIPK2 (human); compound 0.01 µM): -0.3%
- inhibition (HIPK2 (human); compound 0.1 µM): 7%
- inhibition (TYRO3 (human); compound 0.01 µM): -1.1%
- inhibition (TYRO3 (human); compound 0.1 µM): 9.2%
- inhibition ([2]; compound 0.01 µM): 1.8%
- inhibition ([2]; compound 0.1 µM): -0.4%
- inhibition (EPHA8 (human); compound 0.01 µM): 15.6%
- inhibition (EPHA8 (human); compound 0.1 µM): 0.3%
- inhibition (FGFR1 (human); compound 0.01 µM): 6.8%
- inhibition (FGFR1 (human); compound 0.1 µM): 2.8%
- inhibition (PHKG1 (human); compound 0.01 µM): 6.4%
- inhibition (PHKG1 (human); compound 0.1 µM): 14.9%
- inhibition (MST1R (human); compound 0.01 µM): 11.8%
- inhibition (MST1R (human); compound 0.1 µM): 37.6%
- inhibition (YES1 (human); compound 0.01 µM): -1.4%
- inhibition (YES1 (human); compound 0.1 µM): -1.7%
- inhibition ([3]; compound 0.01 µM): 2.9%
- inhibition ([3]; compound 0.1 µM): -0.1%
- inhibition (ROCK1 (human); compound 0.01 µM): 3.1%
- inhibition (ROCK1 (human); compound 0.1 µM): 4%
- inhibition ([4]; compound 0.01 µM): 4.1%
- inhibition ([4]; compound 0.1 µM): 19.6%
- inhibition (DAPK1 (human); compound 0.01 µM): 13.1%
- inhibition (DAPK1 (human); compound 0.1 µM): 0.1%
- inhibition ([5]; compound 0.01 µM): 14.9%
- inhibition ([5]; compound 0.1 µM): 1%
- inhibition (PHKG2 (human); compound 0.01 µM): 3.4%
- inhibition (PHKG2 (human); compound 0.1 µM): 13.3%
- inhibition (MARK4 (human); compound 0.01 µM): 7.1%
- inhibition (MARK4 (human); compound 0.1 µM): 2.2%
- inhibition (RET (human); compound 0.01 µM): 10.4%
- inhibition (RET (human); compound 0.1 µM): 12.1%
- inhibition (RPS6KA6 KD1 KD2 (human); compound 0.01 µM): 5.8%
- inhibition (RPS6KA6 KD1 KD2 (human); compound 0.1 µM): 3.2%
- inhibition (ROS1 (human); compound 0.01 µM): 21.2%
- inhibition (ROS1 (human); compound 0.1 µM): 6.6%
- inhibition (MERTK (human); compound 0.01 µM): 11%
- inhibition (MERTK (human); compound 0.1 µM): 9.5%
- inhibition ([6]; compound 0.01 µM): -4.4%
- inhibition ([6]; compound 0.1 µM): -7.2%
- inhibition (FRK (human); compound 0.01 µM): 0.2%
- inhibition (FRK (human); compound 0.1 µM): 3.2%
- inhibition (JAK2 JH1 JH2 (human); compound 0.01 µM): 8.9%
- inhibition (JAK2 JH1 JH2 (human); compound 0.1 µM): 11.9%
- inhibition (AXL (human); compound 0.01 µM): -2.8%
- inhibition (AXL (human); compound 0.1 µM): 11.7%
- inhibition (CDK5 CDK5R1 p25 (human); compound 0.01 µM): 8.4%
- inhibition (CDK5 CDK5R1 p25 (human); compound 0.1 µM): -2%
Structure (SMILES): Cn1cc(-c2cnc3ccc4ccc(CS(=O)(=O)NC5CCCCC5)cc4c(=O)c3c2)cn1
